According to US12534501B2, “Targeting deregulated Wnt signaling in cancer using stabilized alpha-helices of BCL-9” (Dana-Farber Cancer Institute, Inc., priority 2011, dated 2026):
Numbered stars: 1 amine (or outer) side, 2 acyl side, 3 side chain; on linkers, the order of the positions; unused ones are H or OH. Bridge positions count the residues as written; N and C are the ends. Square brackets hold non-standard residues; d marks the D form. Peptide text beside a SMILES is read from it. ξ: configuration not given here. ξαMeNle(6-ylidene) = CC(CCCC=[*:3])(N[*:1])C(=O)[*:2]; Nle = CCCC[C@H](N)C(=O)O

Experiments:
[1] = system: caspase-3 or PARP; assay: Apoptosis by activated caspase-3 and PARP western blotting; assay type: cell-based; details: western analysis
Experimental: (§1) Cell proliferation assays were performed as described (Sukhdeo, K. et al. Proc Natl Acad Sci USA 104, 7516-21 (2007)). Cell viability was measured using the CellTiter-Glo assay (Promega) according to the manufacturer's instructions. Apoptosis was evaluated by activated caspase-3 and PARP western blotting. See results in FIG. 3A-FIG. 3F, FIG. 13, and FIG. 20.

[2] = system: HCT116, HCT116DO20 and HCT116KO58 cells; assay: Cell proliferation of cultured colon cancer cells; assay type: cell-based; details: HCT116 and derivatives, not dependent on Wnt/β-catenin activity
Experimental: as §1

[3] = system: LS174T cell line; assay: Cell proliferation of cultured colon cancer cells; assay type: cell-based; details: does not express BCL9
Experimental: as §1

[4] = system: CRC cell lines expressing BCL9; assay: Cell proliferation of cultured colon cancer cells; assay type: cell-based
Experimental: as §1

[5] = system: GFP-positive INA-6 cells in human bone chips of SCID-hu mice; assay: SCID-hu murine model of human MM; assay type: in vivo; details: for shuIL-6R serum levels: 5 mg/kg local injection every other day; for tumor cell invasion outside the bone chip: histologic analysis
Experimental: In a second in vivo model, the impact of SAH-BCL9B treatment on the growth of INA-6 MM cells within a human bone graft implanted in the flank of SCID-hu mice was examined (Tassone, P. et al. Blood 106, 713-6 (2005)). GFP-labeled INA-6 cells (5×10^6), which express both BCL9 and β-catenin and are suppressed by SAH-BCL9B in vitro were injected into bone grafts four weeks after implantation. Two days later, cohorts of mice (n=5) were treated by local injection with vehicle (2.5% DMSO in D5W), SAH-BCL9B, or SAH-BCL9B(R359E) peptides (5 mg/kg) for a total of 10 doses administered every other day. To monitor tumor burden, the serum level of soluble human interleukin-6 receptor (shuIL-6R) was measured, which is first detectable 3-4 weeks after INA-6 tumor engraftment. […] Mice were sacrificed 33 days after INA-6 cell injection and evaluated for MM tumor burden by fluorescence imaging, histologic analysis, and anti-CD34 staining. […] Similar to the CRC model, local angiogenesis was suppressed in SAH-BCL9B-treated SCID-hu mice, as monitored by anti-CD34 staining and blood vessel quantitation (FIG. 4I).
For the SCID-hu murine model of human MM, human fetal bone grafts measuring 1.5×0.5 cm were subcutaneously implanted into eight week old male CB-17 SCID mice (Taconic) as previously described (Tassone, P. et al. Blood 106, 713-6 (2005)). Four weeks after bone implantation, 5×10^6 GFP-positive INA-6 MM cells were injected directly into each bone implant. Two days later, mice were treated with 100 μl injections of vehicle (2.5% DMSO in D5W) or SAH-BCL9 peptides (5 mg/kg) instilled adjacent to the bone chips on alternate days for a total of 10 doses. Mouse sera were serially monitored for shuIL-6R levels by ELISA (R&D Systems). Thirty-three days after tumor cell injection, the mice were sacrificed and analyzed for tumor burden by fluorescence imaging and histologic analysis of the bone grafts. See results in FIG. 4A-FIG. 4I. In addition, TUNEL staining was performed on samples obtained from the mice. […] See results in FIG. 22 and FIG. 23. All animal experiments were performed in accordance with approved protocols of the Dana-Farber Cancer Institute Animal Care and Use Committee.

[6] = system: INA-6 multiple myeloma cells; assay: Cell proliferation, thymidine incorporation; assay type: cell-based; details: 5 μM, 24 h, vs vehicle and SAH-BCL9B(R359E)
Experimental: as §1

[7] = system: VEGF secretion by Colo320 cells; assay: VEGF ELISA; assay type: cell-based; details: 5 μM, 24 h
Experimental: (§2) VEGF ELISA was performed as previously described (Mani, M. et al. Cancer Res 69, 7577-86 (2009)). Briefly, cells (1×10^6) were treated with vehicle and SAH-BCL9 peptides (5 μM) for 24 h. VEGF levels in the supernatant were then measured according to the manufacturer's ELISA protocol (DuoSet, R&D Systems).

[8] = system: VEGF secretion by MM1S cells; assay: VEGF ELISA; assay type: cell-based; details: 5 μM, 24 h
Experimental: as §2

[9] = system: Wnt-dependent reporter activity (TOP-FLASH) in Colo320 cells; assay: Wnt-specific TCF reporter gene assay (TOP-FLASH dual luciferase); assay type: cell-based; details: Colo320, normalized to Renilla
Experimental: (§3) Luciferase activity was measured using the Dual Luciferase Reporter Assay System (Promega) as previously described (Sukhdeo, K. et al. Proc Natl Acad Sci USA 104, 7516-21 (2007)). To measure Wnt or NFκB reporter activity, Colo320 cells were transfected with TOP-FLASH, FOP-FLASH plasmid (Millipore Corporation) or NFκB luciferase reporter (Stratagene), along with an internal Renilla control plasmid (hRL-null). Transfection was accomplished using FuGENE (Roche) according to the manufacturer's protocol. The results were normalized to control Renilla activity. The reported data represent the average of three independent transfection experiments performed in triplicate. See results in FIG. 9, FIG. 10.

[10] = system: NFκB luciferase reporter in Colo320 cells; assay: NFκB reporter gene transcriptional assay; assay type: cell-based; details: selectivity control
Experimental: as §3

[11] = system: β-catenin/BCL9-driven transcription in HCT116 cells; assay: TOP-FLASH dual luciferase assay with pcDNA-BCL9 transfection; assay type: cell-based; details: HCT116, TOP-FLASH and pcDNA-BCL9, peptides 5 μM, 24 h
[12] = system: MM1S cells; assay: Combination with doxorubicin, 3H-thymidine incorporation; assay type: cell-based; details: increasing concentrations of Dox
Experimental: To test whether the anti-proliferative effect of SAH-BCL9B could synergize with other agents commonly used to treat MM or CRC, combination treatment studies were conducted. Indeed, the cytotoxic effects of 5-fluorouracil on CRC cells and of doxorubicin on MM cells were enhanced by SAH-BCL9B, but not by vehicle or the mutant peptide. See results in FIG. 21.

Row | Compound | caspase-3 or PARP activation [1] | proliferation [2] | proliferation [3] | proliferation [4] | shuIL-6R serum levels ([5]; 10 doses) | local angiogenesis (anti-CD34 staining, blood vessel quantitation) ([5]; 5 mg/kg local, 10 doses) | tumor burden within the bone chip ([5]; 5 mg/kg local, 10 doses, day 33) | TUNEL positivity in myeloma tumor tissue ([5]; bone chips bearing INA-6 cells) | tumor cell invasion outside the bone chip ([5]; day 33) | growth by thymidine incorporation [6] | VEGF secretion [7] | VEGF secretion [8] | reduction of Wnt-specific TCF reporter activity [9] | effect on NFκB reporter activity [10] | suppression of reporter activity on increasing BCL9 expression [11] | enhancement of anti-tumor activity of doxorubicin [12]
1 | CCCC[C@H](NC(=O)[C@H](CCCNC(=N)N)NC(=O)[C@H](CCC(N)=O)NC(=O)[C@@H](NC(=O)C1(C)CCCC=CCCCC(C)(NC(=O)[C@H](CC(C)C)NC(=O)[C@H](CO)NC(=O)[C@H](CCCNC(=N)N)NC(=O)[C@H](CCC(=O)O)NC(=O)[C@H](CCCNC(=N)N)NC(=O)[C@H](Cc2c[nH]cn2)NC(=O)[C@H](CCC(=O)O)NC(=O)[C@H](CC(C)C)NC(=O)[C@H](CCC(N)=O)NC(=O)[C@H](CCC(=O)O)NC(=O)[C@H](CCC(N)=O)NC(=O)[C@H](CO)NC(=O)[C@H](CC(C)C)NC(C)=O)C(=O)N[C@@H]([C@@H](C)O)C(=O)N[C@@H](CC(C)C)C(=O)N[C@@H](CCCNC(=N)N)C(=O)N1)[C@@H](C)CC)C(=O)N[C@@H](CC(C)C)C(=O)N[C@@H](Cc1ccccc1)C(N)=O (stereo partly shown) [SAH-BCL9B] (Ac-LSQEQLEHRERSL[ξαMeNle(6-ylidene)]TLR[ξαMeNle(6-ylidene)]IQR[Nle]LF-NH2; staple 14-18) | did not activate caspase-3 or PARP | no sensitivity | no response | significantly reduced the proliferation | low to undetectable levels | suppressed | significantly reduced | notably increased TUNEL positivity | resided within the confines of the bone chip | significantly reduced growth | decreased VEGF secretion | decreased VEGF secretion | ~50% | no effect | dose-responsively reversed | significantly enhanced the anti-tumor activity
2 | SAH-BCL9B(R359E): SEQ ID NO: 7: LSQEQLEHEERSLXTLRXIQRBLF; reverse polarity point mutant, negative control of SAH-BCL9B |  |  |  |  | progressive increase in shuIL-6R levels |  |  |  | invasion into the surrounding soft tissue |  |  |  | no effect |  |  | 
